Measurements taken from PMC11397260, “Towards New Delivery Agents for Boron Neutron Capture Therapy: Synthesis and In Vitro Evaluation of a Set of Fluorinated Carbohydrate Derivatives” (Molecules, 2024).
pIC50: −log10 of the molar value. Values belong to the molecule of their own block, whether it stands above or below them.

Key:
GLUT1 = molecular target: T1, GLUT1 (Homo sapiens, UniProt P11166); assay: cis-inhibition assay of [14C]-D-glucose uptake (GLUT1 affinity) in CAL 27 cells; format: cell-based; conditions: incubation time 5 min
T1 construct: host or cells: CAL 27
T1 sequence (P11166 1-492): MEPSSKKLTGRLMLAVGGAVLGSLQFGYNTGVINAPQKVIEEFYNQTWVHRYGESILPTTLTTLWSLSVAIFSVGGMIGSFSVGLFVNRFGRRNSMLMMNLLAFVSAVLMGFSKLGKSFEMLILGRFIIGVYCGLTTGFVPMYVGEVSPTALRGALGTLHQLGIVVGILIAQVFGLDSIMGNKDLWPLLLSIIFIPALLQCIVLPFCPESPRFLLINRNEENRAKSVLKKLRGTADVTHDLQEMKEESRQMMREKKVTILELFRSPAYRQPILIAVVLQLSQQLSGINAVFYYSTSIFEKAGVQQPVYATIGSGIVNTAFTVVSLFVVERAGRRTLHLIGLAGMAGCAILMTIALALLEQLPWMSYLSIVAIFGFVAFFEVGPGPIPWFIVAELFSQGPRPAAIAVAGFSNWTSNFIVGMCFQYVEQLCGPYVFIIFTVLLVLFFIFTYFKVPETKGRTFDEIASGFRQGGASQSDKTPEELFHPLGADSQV
Source text: GLUT affinity: In a strategy targeting the GLUTs, it is important to study whether the monosaccharide delivery agents will be able to compete for the transporters with the high D-glucose levels found in blood. For these purposes, we utilized our previously developed cis-inhibition assay in the CAL 27 cell line. In addition to having accurate protocols for assessment of GLUT-affinity, we have previously studied the GLUT1 expression and verified its function in the CAL 27 cell line. Thus, a strong foundation was available for the current study and we employed an identical protocol herein in the assessment of GLUT affinity, i.e., in assessing to which extent the delivery agents will be able to compete for the GLUTs against the natural substrate D-glucose.
(§1) The CAL 27 (ATCC CRL-2095) cells used in all assays were acquired from ATCC (Manassas, VA, USA) and cultured in Dulbecco’s Modified Eagle Medium (DMEM) supplemented with L-glutamine (2.0 mM), heat-inactivated fetal bovine serum (10%), and penicillin (50 U/mL)-streptomycin (50 μg/mL) at 37 °C with 5% CO2 and 95% relative humidity.
The GLUT1 affinity assay was conducted following our previously established protocol. Stock solutions of the glycoconjugates were prepared in DMSO. From the stock solutions, the samples employed in the study were prepared by diluting the stock solutions in glucose-free HBSS-buffer to reach concentrations of 0.1–1800 μM. The cells were incubated at RT for 5 min with glycoconjugates 1–4, BSH or BPA over the concentration range given above. The glucose-free HBSS buffer as such was used as a blank control. In more detail, the solutions included 1.8 μM ([…]) of [^14C]-D-glucose in 250 μL of glucose-free HBSS (Hanks’ balanced salt solution). Ice-cold buffer was used for quenching. Cell lysis was performed using 0.1 M NaOH (250 μL) and then mixed with an emulsifier safe cocktail (1.0 mL) (PerkinElmer, Waltham, MA, USA). The radioactivity was measured with a liquid scintillation counter (MicroBeta2 counter, PerkinElmer, Waltham, MA, USA), and the IC50 values were calculated through nonlinear regression analysis.

CAL 27 cells = assay: Boron delivery capacity (boron uptake) by ICP-MS; format: cell-based, human; conditions: 10–400 μM, 5 min and 120 min, compared with BPA and BSH and within the series
Method: Boron delivery capacity: A central property of boron delivery agents is their boron delivery capacity. […] Herein, we studied the boron delivery capacity at two time points (5 min, and 120 min) over the concentration range of 10–400 μM (see summary in Figure 4). Our previously employed protocol was utilized in order to be able to compare the results to those obtained earlier. In short, after quenching of the incubation, washing, lysis, and digestion with nitric acid, the boron content could be determined by ICP-MS.
as §1
The boron uptake studies were performed according to our earlier reported protocol. The samples used in the boron uptake studies were prepared as described above for the affinity studies. The cells were preincubated. Glycoconjugates 1–4 at various concentrations (10–400 μM in 250 μL of HBSS) were added, and incubation continued for […] 120 min at RT. […] Milli-Q water (USF Elga Purelab Ultra, Veolia Water Technologies, High Wycombe, UK) was added to bring the sample volume to 10 mL, and the boron content was measured in triplicates using ICP-MS. […]

[1] = Plasma stability, human plasma; format: in vitro ADME; conditions: 50 μM
Method: (§2) These studies provide important insights into the stability and behavior of the delivery agent in a biological setting, which is a key factor at later stages of the development pipeline. The serum stability studies were performed in both human and mouse plasma at a set concentration of 50 μM over a time period of 24 h. Propantheline (5 μM) was utilized as a control substrate for validating the assay. […] In human plasma, the stability profile was distinct. […] While the boron delivery agent 4 does decompose in human plasma over time, the rate at which this occurs is acceptable when taking into account that the recommended guidelines for FDG imaging, thus tumor delivery, is between 55–75 min post administration. Nevertheless, the ortho-carboranylmethyl-substituent is likely to affect the pharmacokinetic properties of the delivery agents and thus comprehensive biodistribution studies will be needed in the future to assess these factors in more detail.
10 mM working solutions of the test compound was prepared in DMSO and a 1 mM working solution of the control compound propantheline was prepared in acetonitrile. 4 µL of working solutions was spiked to 796 µL of pre-incubated plasma to reach a final concentration of 50 µM or 5 µM. The final concentration of solvent was 0.5%. 50 µL aliquots of the spiked plasma were added into new tubes for 1, 4, 8 and 24 h and incubated at 37 °C water bath with shaking at 60 rpm. The assay was performed in duplicate. The reaction was stopped by adding 300 µL of RT quench solution (acetonitrile containing internal standards (IS, 100 nM Alprazolam, 500 nM Labetalol, and 2 µM Ketoprofen)) to the spiked plasma samples at the appointed time points. […] Peak area ratios were determined from extracted ion chromatograms. Percent compounds remaining at each time point were calculated by the following equation:Remaining Percentage t h (%) = Peak Area Ratio t h/Peak Area Ratio 0 h × 100 where Peak Area Ratio t h is the peak area ratio of control and test compound at t h; Peak Area Ratio 0 h is the peak area ratio of control and test compound at zero time point.

[2] = Plasma protein binding, equilibrium dialysis, mouse plasma; format: in vitro ADME; conditions: 1 μM, results similar in human and mouse
Method: (§3) Through the plasma protein binding assay, we sought to provide a baseline for future assessment of the ADME-properties of FDM derivative 4. In more detail, this assay would let us evaluate to which extent the FDM derivative 4 would remain in an unbound state in the presence of plasma proteins. These studies were performed through the standard equilibrium dialysis protocol at the time points of 0 and 6 h employing a concentration of 1 μM. While the studies were performed in both human and mouse plasma, the results were similar in both cases. Being a relatively lipophilic species, it was unsurprising that the FDM derivative 4 bound in significant amounts to the plasma proteins (~97% bound vs. 3% unbound).
The working solutions of test compounds were prepared in DMSO at the concentrations of 10 mM and the working solution of control compound ketoconazole was prepared in DMSO at the concentration of 200 μM. 3 μL of the working solutions were removed to mix with 597 μL of plasma to achieve a final concentration of 1 μM or 50 μM (0.5% DMSO). The plasma samples were vortexed thoroughly. A total of 50 µL of the spiked plasma sample was transferred to 50 μL of blank buffer, and then either incubated for 6 h (37 °C with 5% CO2) or immediately quenched by the addition of 300 μL of RT quench solution (acetonitrile containing internal standards (IS, 200 nM labetalol, 100 nM tolbutamide and 100 nM ketoprofen) to precipitate protein and the mixture was vortex for 5 min.
The dialysis membranes were soaked in ultrapure water for 60 min to separate strips, then in 20% ethanol for 20 min, and finally in dialysis buffer for 20 min. The dialysis apparatus was assembled according to the manufacturer’s instructions. Each cell was filled with 120 μL of spiked plasma sample and dialyzed against equal volume of dialysis buffer (PBS). The assay was performed in duplicate. The dialysis plate was sealed and incubated in an incubator at 37 °C with 5% CO2 at 100 rpm for 6 h. […]

[3] = Plasma stability, mouse plasma; format: in vitro ADME; conditions: 50 μM
Method: as §2, with “Nevertheless, the ortho-carboranylmethyl-substituent is likely to affect the pharmacokinetic properties of the delivery agents and thus comprehensive biodistribution studies will be needed in the future to assess these factors in more detail.” left out
10 mM working solutions of the test compound was prepared in DMSO and a 1 mM working solution of the control compound propantheline was prepared in acetonitrile. […] Peak area ratios were determined from extracted ion chromatograms. Percent compounds remaining at each time point were calculated by the following equation:Remaining Percentage t h (%) = Peak Area Ratio t h/Peak Area Ratio 0 h × 100 where Peak Area Ratio t h is the peak area ratio of control and test compound at t h; Peak Area Ratio 0 h is the peak area ratio of control and test compound at zero time point.

[4] = Plasma protein binding, equilibrium dialysis, human plasma; format: in vitro ADME; conditions: 1 μM, results similar in human and mouse
Method: as §3
The working solutions of test compounds were prepared in DMSO at the concentrations of 10 mM and the working solution of control compound ketoconazole was prepared in DMSO at the concentration of 200 μM. 3 μL of the working solutions were removed to mix with 597 μL of plasma to achieve a final concentration of 1 μM or 50 μM (0.5% DMSO). The plasma samples were vortexed thoroughly. […]

Molecule: 2-deoxy-2-fluoro-6-O-carboranylmethyl-D-glucopyranose [Compound 1]
pIC50 (GLUT1): 4.11

Molecule: 2-deoxy-2-fluoro-6-O-carboranylmethyl-D-mannopyranose [Compound 3]
pIC50 (GLUT1): 4.20

Molecule: OC[C@H]1OC(O)[C@H](O)[C@@H](O)[C@@H]1O (stereo partly shown) [D -Glc, reference compound]
pIC50 (GLUT1): < 3.00

Molecules with a higher pIC50 (GLUT1), results first:

pIC50 (GLUT1): 4.24
Molecule: 2-deoxy-2-fluoro-4-O-carboranylmethyl-D-glucopyranose [Compound 2]

stability in human plasma ([1]; 1 h): remained stable
remained intact ([1]; 4 h): 86.7%
remained intact ([1]; 24 h): 39.5%
remained in the bound state ([2]; 6 h mark): 80–87%
bound to plasma proteins ([2]; equilibrium dialysis): ~ 97%
unbound ([2]; equilibrium dialysis): 3%
pIC50 (GLUT1): 4.23
conjugate remaining intact ([3]; 1 h): 84.7%
conjugate remaining intact ([3]; 24 h): 60%
bound to plasma proteins [4]: ~ 97%
unbound [4]: 3%
Molecule: 2-deoxy-2-fluoro-4-O-carboranylmethyl-D-mannopyranose [Compound 4]
boron delivery capacity (CAL 27 cells): best delivery agent out of the series synthesized
